The results in this text go back to article PMC10580319, “Quantitative Imaging of the Action of vCPP2319, an Antimicrobial Peptide from a Viral Scaffold, against Staphylococcus aureus Biofilms of a Clinical Isolate” (ACS Infectious Diseases, 2023).

Where no end group is shown, it is not given here.

The subject of assay [1] is S. aureus clinical isolate biofilms. Briefly: CLSM assay, SYTO 9 / WGA Alexa Fluor 633, polysaccharide density and mass, biofilm height. It counts as cell-based, Staphylococcus aureus. To be noted: fold variation relative to untreated biofilm, 0.13 mg/mL α-amylase, 25 μM vCPP2319, 4 h each. On the procedure: (EC 3.2.1.1) on the EPS matrix of S. aureus biofilms was evaluated using a CLSM-based assay. Briefly, the bacterial cells and the matrix components of S. aureus biofilms were imaged using SYTO 9 and Wheat Germ Agglutinin (WGA) Alexa Fluor 633 Conjugate (Invitrogen, Carlsbad, CA, USA). Preformed biofilms (see above) were washed once with PBS and stained with 3 μM SYTO 9 and 5 μg/mL WGA Alexa Fluor 633, for 15 min at room temperature.
SYTO 9 was excited using the Argon laser (488 nm), and both TO-PRO-3 iodide and WGA Alexa Fluor 633 were excited with the Helium–Neon laser (633 nm), respectively. Image acquisition was performed on a Zeiss LSM 710 confocal laser point-scanning inverted microscope (Carl Zeiss MicroImaging, Oberkochen, Germany) equipped with a Plan-Apochromat DIC 63× oil immersion objective (1.40 numerical aperture). For each experiment, three different areas were imaged. All images were analyzed with the image processor Fiji.[54] TO-PRO-3 mean fluorescence intensity over the image was quantified from the xy plane of an inner layer (z = 2 μm, z being the distance from the surface of the glass slide) using Fiji’s incorporated plug-ins.[54] WGA mean fluorescence intensity over the image was quantified from the xy plane of an inner layer (z = 2 μm, z being the distance from the surface of the glass slide) and also from a z-projection of the sum of the z-stack slices, using Fiji’s incorporated plug-ins.[54] Biofilm height was determined from the xz orthogonal images using ZEN lite software (Carl Zeiss MicroImaging).
The mean emission fluorescence intensity of WGA integrated over a plane xy at a specific depth, z, If,WGA,xy, is proportional to the mass of polysaccharides in that plane.

For assay [2] the test system is unchanged. Briefly: AFM imaging, surface roughness (Rrms). In kind it is cell-based, Staphylococcus aureus. To be noted: 4 h; for cell surface roughness (Rrms): untreated 7.4 ± 1.9 nm; for biofilm surface roughness (Rrms): untreated 183 ± 23 nm. On the procedure: AFM was used to visualize the topography and morphology of S. aureus biofilms in the absence and presence of vCPP2319. Bacterial suspensions at 1 × 10^6 CFU/mL were incubated in a sterile slide with a removable 12 well silicone chamber (Ibidi) for 24 h at 37 °C. After a washing step with MHB, preformed biofilms were incubated in the absence or presence of vCPP2319 at 25 or 50 μM, for 4 h at 37 °C. Untreated and treated biofilms were then washed once with sterile Milli-Q water and incubated with 0.1% (v/v) glutaraldehyde (Sigma-Aldrich) for 4 h at room temperature. Afterward, each sample was washed twice with sterile Milli-Q water and allowed to dry in air for 1 h at room temperature. AFM images were acquired by using a JPK NanoWizard IV (Berlin, Germany) mounted on a Zeiss Axiovert 200 inverted microscope (Oberkochen, Germany). The AFM head was equipped with a 15 μm z-range linearized piezoelectric scanner and an infrared laser. Images were acquired in air and in intermittent contact mode using uncoated silicon ACL cantilevers from AppNano (Mountain View, CA, USA) with typical resonance frequencies of 200–400 kHz and spring constant of 13–77 N/m. Scan speeds ranged between 0.2 and 0.4 Hz and total scan areas of 5 × 5 μm were imaged. Height and error images were recorded. Height images reflect the topography of the sample. Error images are generated by the deflection of the cantilever as it bends while interacting with the sample and are adequate to improve resolution on the edges of objects imaged by AFM. For each experiment, three different areas were imaged. The surface roughness was defined as the root-mean-square roughness (Rrms)[52] and it was obtained from AFM height images using Gwyddion software version 2.56, based on the following equation after compensation for bacterial curvature: [drawing 3] 3 where N is the number of data points and zi is the height deviation of i-th point from a mean line.[53] For the biofilm surface roughness, Rrms values were calculated from the total imaged area of the biofilm, while for the cell surface roughness, Rrms values were calculated from a line of cells in three different regions of each image of untreated and peptide-treated biofilms. The final Rrms values are the averages of all measurements.

Regarding WRRRYRRWRRRRRWRRRPRR-NH2 [vCPP2319], the “ρi/ρcontrol (polysaccharides) eq 4” value in assay [1] (WGA fluorescence at z = 2 μm) is on record as 0.7. Besides, the “mi/mcontrol (polysaccharides) eq 5” value in assay [1] (integrated WGA fluorescence over total biofilm) is recorded as 0.5. Besides, in assay [1] (integrated WGA fluorescence over zz divided by biofilm height), the “ρi/ρcontrol (polysaccharides) eq 6” value came to 0.8. The figures for the “cell surface roughness (Rrms)” value in assay [2] (25 μM) and in assay [2] (50 μM) were 13 ± 3 nm and 20 ± 5 nm, respectively. For the same substance, the entries for the “biofilm surface roughness (Rrms)” value in assay [2] (25 μM) and in assay [2] (50 μM) were 303 ± 93 nm and 429 ± 142 nm, respectively.
